Experimental data as given in ChEMBL document CHEMBL1821631, “A novel binding assay identifies high affinity ligands to the rosiglitazone binding site of mitoNEET” (Bioorg Med Chem Lett, 2011).
Calls of active or inactive are those of the source. The calls are words filed in the database; no cut-off is given here.

target: T1, CDGSH iron-sulfur domain-containing protein 1 (Homo sapiens, UniProt Q9NZ45); experiment: Displacement of [3H]-rosiglitazone from human recombinant C-terminal His-tagged cytosolic domain of mitoNEET (32-108) by scintillation proximity assay
T1 sequence (Q9NZ45 whole entry): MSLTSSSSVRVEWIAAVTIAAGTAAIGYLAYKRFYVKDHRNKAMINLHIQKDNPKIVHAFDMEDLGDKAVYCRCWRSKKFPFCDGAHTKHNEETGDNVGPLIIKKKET

Question: Which IC50 does the source give for `COc1ccccc1/C=C1\SC(=O)N(CCN)C1=O` here?
Answer: 82.3 µM

Question: For `Cc1cc(CC2SC(=O)NC2=O)cc(C)c1O` (stereo unspecified), which IC50 is on record?
Answer: 9.56 µM

Question: With `COc1cc(/C=C2\SC(=S)NC2=O)ccc1O` as the molecule, how does the IC50 read?
Answer: 1.73 µM

Question: Which IC50 does the source give for `O=C1NC(=S)S/C1=C/c1ccncc1` here?
Answer: 5.97 µM

Question: How did the IC50 turn out when `O=C(/C=C1/SC(=O)NC1=O)Nc1ccccc1` was run?
Answer: 11.1 µM

Question: Which IC50 does the source give for `O=C1NC(=O)C(Cc2ccc(O)cc2)S1` (stereo unspecified) [GLITAZONE] here?
Answer: 14 µM

Question: For `COc1cc(/C=C2/SC(=S)NC2=O)c(OC)cc1O`, which IC50 is on record?
Answer: 4.47 µM

Question: Which IC50 does the source give for `O=C1NC(=O)/C(=C/c2ccc3nccnc3c2)S1` here?
Answer: 3.26 µM

Question: How did the IC50 turn out when `CC(C)(C)c1cc(CC2SC(=O)N=C2O)cc(C(C)(C)C)c1O` (stereo unspecified) was run?
Answer: 7.36 µM

Question: For `O=C1NC(=O)/C(=C\c2cc(Br)c(O)cc2Br)S1`, which IC50 is on record?
Answer: 2.93 µM

Question: Which IC50 does the source give for `Cc1cc(C)cc(CC2SC(=O)NC2=O)c1` (stereo unspecified) here?
Answer: 13.3 µM

Question: `O=C(/C=C1/SC(=O)NC1=O)Nc1cccc(O)c1` was tested. Which IC50 did it give?
Answer: 13.7 µM

Question: For `O=S(=O)(O)Oc1cc(O)cc(/C=C/c2ccc(O)cc2)c1`, which IC50 is on record?
Answer: 3.36 µM

Question: Which IC50 does the source give for `O=C1NC(=O)C(Cc2ccc3c(c2)OC(F)(F)O3)S1` (stereo unspecified) here?
Answer: 5.23 µM

target: T2, CDGSH iron-sulfur domain-containing protein 1 (Homo sapiens) (UniProt Q9NZ45); experiment: Displacement of [3H]-rosiglitazone from human recombinant C-terminal His-tagged cytosolic domain of mitoNEET (32-108) at 80 uM by scintillation proximity assay
T2 sequence (whole entry): T1 sequence (Q9NZ45 whole entry)

Question: `N#CCCN1C(=O)S/C(=C\c2ccccc2)C1=O` was tested. Which inhibition did it give?
Answer: inactive

Question: How did the inhibition turn out when `Oc1ccc(/C=C/c2cc(O)cc(O)c2)cc1` was run?
Answer: inactive
